The subject of series [1] is Past. Multocida ATCC6587. The experiment in a line: Minimum inhibitory concentration vs microorganisms. The note with it: Wellcotest broth plus 7% lysed horse blood, 18 hours, 37°C.
Excerpt: (§2) The culture medium used in the test was Wellcotest broth to which lysed horse blood had been added at a final concentration of 7%. The assay was semi-automated employing 96-well Microtiter plates, and growth was monitored visually.
Series [2] deals with Sal. Typhimurium S8587. The experiment in a line: Minimum inhibitory concentration vs microorganisms. As to conditions: Wellcotest broth plus 7% lysed horse blood, 18 hours, 37°C.
Excerpt: as §2
The test system of series [3] is Bord. Bronchisep-tica CN385. Put plainly: Minimum inhibitory concentration vs microorganisms. As to conditions: Bord. Bronchiseptica CN385; Wellcotest broth plus 7% lysed horse blood, 18 hours, 37°C.
Excerpt: as §2
The test system of series [4] is KB3-1 epidermoid carcinoma. The experiment in a line: Cytotoxicity in cell culture (inhibition of cell growth). It is filed as cell-based. The note with it: KB 3-1, human line, continuous exposure 72 hours. As to the method:
(§1) The cytotoxic effects of various compounds were measured by the inhibition of mammalian cell growth in culture. Cell lines were grown in RPMI-1640 media prepared without folic acid but supplemented with 10nM calcium leucovorin, 25mM HEPES and 10% dialysed fetal bovine serum. In the case of human medulloblastoma cells (Daoy), the media (containing undialysed 10% fetal bovine serum) was pretreated with the enzyme thymidine phosphorylase (20 units/ml for 30 mins. at 37°C) to remove endogenous thymidine. Cells were seeded into 96 well microtiter plates (at densities determined to give log phase growth of control cells at the end of the assay) in 150µl of medium and grown at 37°C in a humidified incubator at 6% CO₂ for 24 hours. Compounds were prepared in media at four times the highest concentration to be tested; two-fold serial dilutions were made, and compounds were added to cells. […] The EC₅₀, defined as the concentration of compound required to reduce growth to 50% of the control, was determined from a plot of per cent inhibition versus log concentration. Cells were continuously exposed to inhibitor for 72 hours.

Series [5] relates to GC3C1 colon carcinoma. The description is as above. It is filed as cell-based. As to conditions: GC3/C1, human line, continuous exposure 72 hours. As to the method:
as §1

The test system of series [6] is Daoy medulloblastoma. Described as above. It is filed as cell-based. As to conditions: human line, continuous exposure 72 hours, medium pretreated with thymidine phosphorylase. As to the method: as §1
For series [7], the system named is L cells (derived from connective tissue). Described as above. It is filed as cell-based. As to conditions: mouse line, continuous exposure 72 hours. As to the method:
as §1

Series [8] concerns MCF7 breast adenocarcinoma. The description is as above. It is filed as cell-based. The note with it: human line, continuous exposure 72 hours. As to the method: as §1
Series [9] deals with P388 lymphoid neoplasm. The description is as above. The note with it: mouse line, continuous exposure 72 hours. It is filed as cell-based. As to the method:
as §1

Series [10] relates to HCT8 colon adenocarcinoma. The series is described as above. It is filed as cell-based. As to conditions: HCT-8, human line, continuous exposure 72 hours. As to the method:
as §1

The test system of series [11] is S180 sarcoma. The description is as above. It is filed as cell-based. The note with it: S-180, mouse line, continuous exposure 72 hours. As to the method: as §1
The subject of series [12] is Ehrlich ascites carcinoma. Described as above. As to conditions: mouse line, continuous exposure 72 hours. It is filed as cell-based. The protocol: as §1
The test system of series [13] is D98 bone marrow cells. The description is as above. It is filed as cell-based. As to conditions: human line, continuous exposure 72 hours. As to the method: as §1
Series [14] deals with CCRF-CEM T cells. The series is described as above. As to conditions: human line, continuous exposure 72 hours. It is filed as cell-based. As to the method: as §1
The test system of series [15] is Sal. Typhosa CN512. Put plainly: Minimum inhibitory concentration vs microorganisms. It is filed as cell-based. The note with it: Wellcotest broth plus 7% lysed horse blood, 18 hours, 37°C.
In series [16] the test system is Myco. Smegmatis S3254. Put plainly: Minimum inhibitory concentration vs microorganisms. As to conditions: Wellcotest broth plus 7% lysed horse blood, 18 hours, 37°C.
Excerpt: as §2
Series [17] addresses T1, DHFR (Candida albicans, UniProt P22906).
T1 sequence (P22906 1-192): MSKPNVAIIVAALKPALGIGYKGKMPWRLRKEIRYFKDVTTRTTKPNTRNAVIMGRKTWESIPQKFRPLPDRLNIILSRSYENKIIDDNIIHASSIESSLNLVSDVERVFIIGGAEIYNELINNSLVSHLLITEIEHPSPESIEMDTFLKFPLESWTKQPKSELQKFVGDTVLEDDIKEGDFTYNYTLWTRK
The experiment in a line: biochemical.

The subject of series [18] is Candida Albicans CN1863. Put plainly: Minimum inhibitory concentration vs microorganisms. As to conditions: Wellcotest broth plus 7% lysed horse blood, 18 hours, 37°C.
Excerpt: as §2
Series [19] addresses T2, human dihydrofolate reductase (Homo sapiens, UniProt P00374).
T2 sequence (P00374 1-187): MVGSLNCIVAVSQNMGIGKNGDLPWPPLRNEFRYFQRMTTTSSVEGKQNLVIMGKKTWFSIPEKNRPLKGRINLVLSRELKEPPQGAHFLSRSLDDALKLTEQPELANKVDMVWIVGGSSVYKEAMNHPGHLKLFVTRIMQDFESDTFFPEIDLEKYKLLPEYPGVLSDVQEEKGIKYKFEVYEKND
Put plainly: Enzyme binding affinity (Ki) for human dihydrofolate reductase, Henderson equation. It is filed as biochemical. As to conditions: 50mM Sorenson's phosphate buffer, pH 7, 45µM dihydrofolate, 65µM NADPH.

The test system of series [20] is Str. Faecalis CN478. The experiment in a line: Minimum inhibitory concentration vs microorganisms. The note with it: Wellcotest broth plus 7% lysed horse blood, 18 hours, 37°C.
Excerpt: as §2
A short description of series [21]: Brain distribution in mice (brain and plasma concentrations by HPLC). It is filed as in vivo. As to conditions: female CD1 mice, 30 or 40 minutes after dose; Compound 1 17mg/kg i.v., Compound 2 10mg/kg i.v., piritrexim 200mg/kg i.p., trimetrexate 100mg/kg i.p.; average of several experiments. The protocol:
Female CD1 mice were dosed with Compound 1 (17mg/kg, i.v.), Compound 2 (10mg/kg, i.v.), piritrexim (200mg/kg,i.p.) or trimetrexate (100mg/kg, i.p.). Brain and plasma samples were collected 30 or 40 minutes later. The drugs were extracted from the samples, and their concentrations were determined using HPLC. The numbers represent the average of several experiments.

Series [22] concerns Str. Pyogenes CN10. Put plainly: Minimum inhibitory concentration vs microorganisms. The note with it: Wellcotest broth plus 7% lysed horse blood, 18 hours, 37°C.
Excerpt: as §2
The subject of series [23] is Str. Agalactiae CN1143. Put plainly: Minimum inhibitory concentration vs microorganisms. The note with it: Wellcotest broth plus 7% lysed horse blood, 18 hours, 37°C.
Excerpt: as §2
Series [24] has as its target T2, human dihydrofolate reductase. The experiment in a line: DHFR I50, human enzyme. It is filed as biochemical.
The test system of series [25] is Staph. Aureus CN491. Put plainly: Minimum inhibitory concentration vs microorganisms. The note with it: Wellcotest broth plus 7% lysed horse blood, 18 hours, 37°C.
Excerpt: as §2
Series [26] has as its system Shig. Flexneri CN6007. The experiment in a line: Minimum inhibitory concentration vs microorganisms. As to conditions: Wellcotest broth plus 7% lysed horse blood, 18 hours, 37°C.
Excerpt: as §2
For series [27], the system named is Vibrio Cholerae ATCC14035. Put plainly: Minimum inhibitory concentration vs microorganisms. As to conditions: Wellcotest broth plus 7% lysed horse blood, 18 hours, 37°C.
Excerpt: as §2
The subject of series [28] is Mycobacterium avium complex (MAC). The experiment in a line: In vitro activity vs Mycobacterium avium complex, radiometric respirometry (BACTEC). It is filed as cell-based. As to conditions: seven (7) clinical isolates of Myco. avium.

Where two headings read alike, the source gives them in different places.

`CCC(CC)n1ccc2c3c(N)nc(N)nc3ccc21` [Compound 1, 1,3-Diamino-7-(1-ethylpropyl)-7H-pyrrolo(3,2-f)quinazoline]: the “M I C” value in [1] turned out to be 0.1 µg/mL; in [2] it was 0.1 µg/mL; in series [3] it was 0.1 µg/mL; in series [15] it was 0.1 µg/mL; in [16] it was 0.1 µg/mL; in series [18] it was 0.3 µg/mL. For the same molecule, the “M I C” value in series [20], in [22], in [23], in series [25] and in [26] was 0.1 µg/mL in each case. The EC50 amounted to 70 nM in series [4]; 3.5 nM in series [5]; 8.4 nM in series [6]; 2.2 nM in series [7]; 38 nM in [8]; 2.7 nM in [9]. In addition, the EC50 in series [10] amounted to 1.2 nM; in series [11], 4.8 nM; in [12], 1.9 nM; in [13], 45 nM; in series [14] it was 0.7 nM. Further, the IC50 in series [17] (C.albicans enzyme, read-out: DHFR I50 C.albicans) is 4.5 nM; in series [24], under 1 nM. Besides, in series [19], the Ki was 0.019 nM. This molecule had a Tissue concentration brain in [21] of 5.0 µg/g. Further, the Tissue concentration plasma in [21] stood at 0.70 µg/mL.
As to `COc1cc(Cc2cnc(N)nc2N)cc(OC)c1OC` [Trimethoprim, 2,4-diamino-5-(3,4,5-trimethoxybenzyl)pyrimidine, reference compound], the “M I C” value in series [1] was 0.1 µg/mL; in series [2] it was 0.1 µg/mL; in series [15], 0.1 µg/mL; in [16], 0.3 µg/mL; in [18], over 100 µg/mL; in [20], 0.1 µg/mL. For the same molecule, the “M I C” value in [27] worked out at 0.3 µg/mL; in series [22], 0.1 µg/mL; in series [23], 0.1 µg/mL; in series [25], 0.1 µg/mL; in [26], 0.1 µg/mL.
On to `CCC(CC)n1c(C)cc2c3c(N)nc(N)nc3ccc21` [Compound 2, 1,3-Diamino-7-(1-ethylpropyl)-8-methyl-7H-pyrrolo(3,2-f)quinazoline], for which the “M I C” value in series [1] was “.0001 µg/mL”; in [2], 0.003 µg/mL; in [3], 0.003 µg/mL; in series [15] it was 0.1 µg/mL; in series [16] it was 0.001 µg/mL; in series [18] it was 0.03 µg/mL. In addition, the “M I C” value in [20] is “.0001 µg/mL”; in [27] it was “.0001 µg/mL”; in series [22], “.0001 µg/mL”; in series [23], “.0001 µg/mL”; in [25], 0.01 µg/mL; in series [26], 0.003 µg/mL. In addition, the M I C in series [28] (roughly translated from growth inhibition, read-out: average MIC) is about 1.6 µg/mL. The EC50 was determined as 13 nM in series [4]; 0.8 nM in series [5]; 0.4 nM in series [6]; 0.7 nM in series [7]; 0.9 nM in series [8]; 0.3 nM in series [9]. The EC50 in [10] was 0.3 nM; in [13] it was 12 nM; in series [14], under 1 nM. Besides, the IC50 in [17] and in [24] was under 1 nM in each case. The Ki in series [19] stood at 0.0014 nM. Moreover, in series [21], the Tissue concentration brain came out at 2.4 µg/g. This molecule also came in with a Tissue concentration plasma in series [21] of 0.36 µg/mL. The inhibition at 1 µg/mL in [28] (1µg/ml, read-out: range of growth inhibition) lay in the range of 69 to 97%. Besides, the inhibition at 5 µg/mL in series [28] (5µg/ml, read-out: range of growth inhibition) was in the range of 97 to 99%.

The term EC50 denotes the concentration giving half of the maximal effect. The term Ki denotes a measure of affinity in units of concentration, obtained from inhibition or displacement. Usually inhibition stands for the percentage by which the read-out fell short of the control.

The values are drawn from EP0542497A1, “Heterocyclic compounds” (THE WELLCOME FOUNDATION LIMITED, priority 1991, dated 1993).
